Laboratory results from the NIST ThermoML archive (doi:10.1021/acs.jced.5b01075).

Assay: wn = mass fraction of the nth substance listed
Settings: 100 kPa, Liquid; for speed of sound: Frequency=3 MHz, Sing-around technique in a fixed-path interferometer; for mass density: Vibrating tube method

C1CC[C@H]2CCCC[C@@H]2C1 [trans-decahydronaphthalene] + c1ccc2c(c1)CCCC2
Settings | mass density [kg/m3] | speed of sound [m/s]
293.15 K, w2 = 0.1003 | 878.7 | 1405
293.15 K, w2 = 0.2002 | 887.89 | 1412.5
293.15 K, w2 = 0.3 | 897.28 | 1420.5
293.15 K, w2 = 0.4002 | 906.9 | 1428.8
293.15 K, w2 = 0.5 | 916.67 | 1437.7
293.15 K, w2 = 0.6 | 926.69 | 1446.9
293.15 K, w2 = 0.7 | 936.89 | 1456.8
293.15 K, w2 = 0.8 | 947.32 | 1467
293.15 K, w2 = 0.8999 | 957.95 | 1477.9
303.15 K, w2 = 0.1003 | 871.18 | 1364.8
303.15 K, w2 = 0.2002 | 880.33 | 1372.4
303.15 K, w2 = 0.3 | 889.67 | 1380.5
303.15 K, w2 = 0.4002 | 899.23 | 1388.9
303.15 K, w2 = 0.5 | 908.96 | 1397.9
303.15 K, w2 = 0.6 | 918.92 | 1407.2
303.15 K, w2 = 0.7 | 929.09 | 1417.2
303.15 K, w2 = 0.8 | 939.47 | 1427.6
303.15 K, w2 = 0.8999 | 950.07 | 1438.6
313.15 K, w2 = 0.1003 | 863.68 | 1325.3
313.15 K, w2 = 0.2002 | 872.76 | 1333.1
313.15 K, w2 = 0.3 | 882.05 | 1341.3
313.15 K, w2 = 0.4002 | 891.55 | 1349.9
313.15 K, w2 = 0.5 | 901.24 | 1358.9
313.15 K, w2 = 0.6 | 911.15 | 1368.4
313.15 K, w2 = 0.7 | 921.27 | 1378.4
313.15 K, w2 = 0.8 | 931.61 | 1388.9
313.15 K, w2 = 0.8999 | 942.17 | 1400
323.15 K, w2 = 0.1003 | 856.15 | 1286.7
323.15 K, w2 = 0.2002 | 865.18 | 1294.5
323.15 K, w2 = 0.3 | 874.42 | 1302.8
323.15 K, w2 = 0.4002 | 883.87 | 1311.5
323.15 K, w2 = 0.5 | 893.51 | 1320.7
323.15 K, w2 = 0.6 | 903.37 | 1330.2
323.15 K, w2 = 0.7 | 913.45 | 1340.4
323.15 K, w2 = 0.8 | 923.75 | 1350.9
323.15 K, w2 = 0.8999 | 934.26 | 1362
333.15 K, w2 = 0.1003 | 848.6 | 1248.7
333.15 K, w2 = 0.2002 | 857.58 | 1256.7
333.15 K, w2 = 0.3 | 866.77 | 1265.1
333.15 K, w2 = 0.4002 | 876.17 | 1273.9
333.15 K, w2 = 0.5 | 885.76 | 1283.1
333.15 K, w2 = 0.6 | 895.58 | 1292.7
333.15 K, w2 = 0.7 | 905.62 | 1303
333.15 K, w2 = 0.8 | 915.87 | 1313.5
333.15 K, w2 = 0.8999 | 926.34 | 1324.8
343.15 K, w2 = 0.1003 | 841 | –
343.15 K, w2 = 0.2002 | 850 | –
343.15 K, w2 = 0.3 | 859.1 | –
343.15 K, w2 = 0.4002 | 868.3 | –
343.15 K, w2 = 0.5 | 878 | –
343.15 K, w2 = 0.6 | 887.9 | –
343.15 K, w2 = 0.7 | 897.7 | –
343.15 K, w2 = 0.8 | 907.9 | –
343.15 K, w2 = 0.8999 | 918.5 | –
353.1 K, w2 = 0.1003 | 833.2 | –
353.1 K, w2 = 0.2002 | 842.3 | –
353.1 K, w2 = 0.3 | 851.4 | –
353.1 K, w2 = 0.4002 | 860.6 | –
353.1 K, w2 = 0.5 | 870.2 | –
353.1 K, w2 = 0.6 | 880 | –
353.1 K, w2 = 0.7 | 889.8 | –
353.1 K, w2 = 0.8 | 900 | –
353.1 K, w2 = 0.8999 | 910.5 | –
363.1 K, w2 = 0.1003 | 825.5 | –
363.1 K, w2 = 0.2002 | 834.6 | –
363.1 K, w2 = 0.3 | 843.5 | –
363.1 K, w2 = 0.4002 | 852.8 | –
363.1 K, w2 = 0.5 | 862.3 | –
363.1 K, w2 = 0.6 | 872.1 | –
363.1 K, w2 = 0.7 | 881.8 | –
363.1 K, w2 = 0.8 | 892 | –
363.1 K, w2 = 0.8999 | 902.4 | –
373.1 K, w2 = 0.1003 | 817.9 | –
373.1 K, w2 = 0.2002 | 826.9 | –
373.1 K, w2 = 0.3 | 835.8 | –
373.1 K, w2 = 0.4002 | 844.9 | –
373.1 K, w2 = 0.5 | 854.5 | –
373.1 K, w2 = 0.6 | 864.2 | –
373.1 K, w2 = 0.7 | 874 | –
373.1 K, w2 = 0.8 | 883.9 | –
373.1 K, w2 = 0.8999 | 894.4 | –
